According to the supplement of paper PMC11414989:

Columns and labels:
Conditions in all cases: exposure window: 6 hpf to 120 hpf, static, assay age: 120 hpf (5 dpf)
[1] = tested on: Danio rerio larvae (Tropical 5D); assay: mean distance moved of exposed larvae, dark phase (µm per frame (1/25 s)); higher = more movement
Protocol: (§1)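 Larval photomotor response in Tropical 5D wild-type zebrafish. Larvae were statically exposed to each chemical from 6 hpf to 5 dpf in 96-well plates; morphologically abnormal larvae were excluded. At 120 hpf, larvae were tracked with Ethovision XT (25 frames/s) over the 2nd cycle of 3 min light and 3 min dark. Values are the mean movement metric of exposed larvae per phase; same-plate control means (plate-dependent baseline) are given as conditions.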

[2] = tested on: Danio rerio larvae (Tropical 5D); assay: mean distance moved of exposed larvae, light phase (µm per frame (1/25 s)); higher = more movement
Protocol: as §1

[3] = tested on: Danio rerio larvae (Tropical 5D); assay: mean angular velocity of exposed larvae, dark phase (angular velocity (unit not stated)); higher = more movement
Protocol: as §1

[4] = tested on: Danio rerio larvae (Tropical 5D); assay: mean angular velocity of exposed larvae, light phase (angular velocity (unit not stated)); higher = more movement
Protocol: as §1

C[Si](C)(C)C(F)(F)C(F)(F)C(F)(F)F [(Heptafluoropropyl)trimethylsilane]
Conditions	mean angular velocity of exposed larvae, [3]	mean angular velocity of exposed larvae, [4]	mean distance moved of exposed larvae, [1]	mean distance moved of exposed larvae, [2]
0.015 µM	0.571	0.0325	13.3	1.23
0.046 µM	0.779	0.0534	19.7	1.25
0.14 µM	0.81	0.0675	19.1	1.98
0.41 µM	0.637	0.0607	16.9	1.51
1.23 µM	0.884	0.048	22.6	1.46
3.7 µM	0.521	0.0422	12.9	0.916
11.1 µM	0.685	0.0925	18.6	2.09
33.3 µM	0.594	0.0521	15.3	1.5
66.5 µM	0.949	0.0503	25.7	1.57
100 µM	1.01	0.0731	24.3	2.09

CC[C@H](C)[C@H]1O[C@]2(C=C[C@@H]1C)C[C@@H]1C[C@@H](C/C=C(\C)[C@@H](O[C@H]3C[C@H](OC)[C@@H](O[C@H]4C[C@H](OC)[C@@H](O)[C@H](C)O4)[C@H](C)O3)[C@@H](C)/C=C/C=C3\CO[C@@H]4[C@H](O)C(C)=C[C@@H](C(=O)O1)[C@]34O)O2.CO[C@H]1C[C@H](O[C@H]2[C@H](C)O[C@@H](O[C@@H]3/C(C)=C/C[C@@H]4C[C@@H](C[C@]5(C=C[C@H](C)[C@@H](C(C)C)O5)O4)OC(=O)[C@@H]4C=C(C)[C@@H](O)[C@H]5OC/C(=C\C=C\[C@@H]3C)[C@]54O)C[C@@H]2OC)O[C@@H](C)[C@@H]1O [Abamectin]
Conditions	mean angular velocity of exposed larvae, [3]	mean angular velocity of exposed larvae, [4]	mean distance moved of exposed larvae, [1]	mean distance moved of exposed larvae, [2]
0.1 µM	0.434	0.111	11.5	2.76
0.2 µM	0.554	0.19	14.8	5.62
0.4 µM	0.283	0.173	7.04	2.25
0.5 µM	0.124	0.0668	3.9	2.39
0.6 µM	0.0798	0.0447	2.89	1.04
0.8 µM	0.0985	0.00094	3.08	0.0237

CN1C(=O)CN=C(c2ccccc2)c2cc(Cl)ccc21 [Diazepam]
Conditions	mean angular velocity of exposed larvae, 1 µM	mean angular velocity of exposed larvae, 3 µM	mean angular velocity of exposed larvae, 5 µM	mean angular velocity of exposed larvae, 8 µM	mean angular velocity of exposed larvae, 12 µM	mean distance moved of exposed larvae, 1 µM	mean distance moved of exposed larvae, 3 µM	mean distance moved of exposed larvae, 5 µM	mean distance moved of exposed larvae, 8 µM	mean distance moved of exposed larvae, 12 µM
[1]	–	–	–	–	–	22.5	22.7	21.5	17.3	17
[2]	–	–	–	–	–	10.9	7.88	7.53	10	11
[3]	1.05	1.06	1.17	0.786	0.733	–	–	–	–	–
[4]	0.379	0.422	0.41	0.389	0.456	–	–	–	–	–
